Activity calls are given as the source filed them. Rule as the data show it, for most assays here: actives have a measured Kd and inactives only a lower limit.
Assays:
Ephrin type-B receptor 2 = molecular target: T1, Ephrin type-B receptor 2 (Homo sapiens, UniProt P29323)
T1 sequence (P29323 whole entry): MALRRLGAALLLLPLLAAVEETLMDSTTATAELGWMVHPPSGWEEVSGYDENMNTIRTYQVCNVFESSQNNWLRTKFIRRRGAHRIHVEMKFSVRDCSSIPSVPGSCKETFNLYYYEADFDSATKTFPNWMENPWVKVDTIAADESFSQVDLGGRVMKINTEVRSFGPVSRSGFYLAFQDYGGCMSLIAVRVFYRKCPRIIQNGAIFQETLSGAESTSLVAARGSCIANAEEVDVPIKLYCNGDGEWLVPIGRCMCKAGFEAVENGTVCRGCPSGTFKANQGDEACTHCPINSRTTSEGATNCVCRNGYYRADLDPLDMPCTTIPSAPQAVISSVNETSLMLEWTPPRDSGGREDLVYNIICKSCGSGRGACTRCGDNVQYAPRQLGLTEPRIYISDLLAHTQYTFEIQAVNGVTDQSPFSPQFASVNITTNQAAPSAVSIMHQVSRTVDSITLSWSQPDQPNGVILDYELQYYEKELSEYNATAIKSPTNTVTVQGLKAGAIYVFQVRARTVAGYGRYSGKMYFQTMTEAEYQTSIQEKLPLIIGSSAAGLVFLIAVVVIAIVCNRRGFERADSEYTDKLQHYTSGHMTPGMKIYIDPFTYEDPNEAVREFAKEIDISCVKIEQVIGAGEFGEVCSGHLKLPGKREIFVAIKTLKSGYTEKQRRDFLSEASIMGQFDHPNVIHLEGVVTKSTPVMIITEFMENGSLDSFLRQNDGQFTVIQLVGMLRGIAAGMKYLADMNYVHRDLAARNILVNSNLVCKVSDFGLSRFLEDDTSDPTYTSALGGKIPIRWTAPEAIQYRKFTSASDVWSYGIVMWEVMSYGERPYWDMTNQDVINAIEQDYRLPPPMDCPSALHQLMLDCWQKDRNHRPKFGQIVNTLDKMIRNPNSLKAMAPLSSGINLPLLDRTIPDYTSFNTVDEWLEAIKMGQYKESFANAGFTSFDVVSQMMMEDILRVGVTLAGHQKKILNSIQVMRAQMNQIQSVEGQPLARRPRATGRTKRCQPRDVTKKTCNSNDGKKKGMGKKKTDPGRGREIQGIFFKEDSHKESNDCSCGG

[1] = molecular target: T2, Dual specificity mitogen-activated protein kinase kinase 5 (Homo sapiens, UniProt Q13163)
T2 sequence (Q13163 whole entry): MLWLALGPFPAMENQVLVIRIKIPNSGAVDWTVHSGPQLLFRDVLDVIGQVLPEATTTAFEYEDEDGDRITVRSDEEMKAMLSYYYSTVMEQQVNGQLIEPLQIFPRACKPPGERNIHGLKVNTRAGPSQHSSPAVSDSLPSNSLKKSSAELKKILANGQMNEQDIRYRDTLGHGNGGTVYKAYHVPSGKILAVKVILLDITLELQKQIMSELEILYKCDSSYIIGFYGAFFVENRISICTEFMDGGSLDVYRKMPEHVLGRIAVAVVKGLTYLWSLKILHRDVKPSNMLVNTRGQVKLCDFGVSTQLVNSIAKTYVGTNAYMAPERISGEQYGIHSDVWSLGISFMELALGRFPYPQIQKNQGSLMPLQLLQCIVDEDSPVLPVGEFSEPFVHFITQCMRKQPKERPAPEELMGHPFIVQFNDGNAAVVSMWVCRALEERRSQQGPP

[2] = molecular target: T3, Dual specificity mitogen-activated protein kinase kinase 3 (Homo sapiens, UniProt P46734)
T3 sequence (P46734 whole entry): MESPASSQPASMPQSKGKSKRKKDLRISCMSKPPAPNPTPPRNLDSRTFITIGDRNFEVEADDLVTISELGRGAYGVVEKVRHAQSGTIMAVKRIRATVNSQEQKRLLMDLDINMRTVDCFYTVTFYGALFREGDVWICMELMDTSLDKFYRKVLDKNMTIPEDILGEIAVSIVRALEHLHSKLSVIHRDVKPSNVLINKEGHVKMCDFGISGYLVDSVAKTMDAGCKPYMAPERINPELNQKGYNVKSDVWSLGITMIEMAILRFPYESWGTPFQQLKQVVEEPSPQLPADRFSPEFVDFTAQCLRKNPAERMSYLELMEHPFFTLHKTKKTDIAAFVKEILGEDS

[3] = molecular target: Rho-associated protein kinase 2 (Homo sapiens, UniProt O75116)
Chain of Rho-associated protein kinase 2 (O75116 whole entry): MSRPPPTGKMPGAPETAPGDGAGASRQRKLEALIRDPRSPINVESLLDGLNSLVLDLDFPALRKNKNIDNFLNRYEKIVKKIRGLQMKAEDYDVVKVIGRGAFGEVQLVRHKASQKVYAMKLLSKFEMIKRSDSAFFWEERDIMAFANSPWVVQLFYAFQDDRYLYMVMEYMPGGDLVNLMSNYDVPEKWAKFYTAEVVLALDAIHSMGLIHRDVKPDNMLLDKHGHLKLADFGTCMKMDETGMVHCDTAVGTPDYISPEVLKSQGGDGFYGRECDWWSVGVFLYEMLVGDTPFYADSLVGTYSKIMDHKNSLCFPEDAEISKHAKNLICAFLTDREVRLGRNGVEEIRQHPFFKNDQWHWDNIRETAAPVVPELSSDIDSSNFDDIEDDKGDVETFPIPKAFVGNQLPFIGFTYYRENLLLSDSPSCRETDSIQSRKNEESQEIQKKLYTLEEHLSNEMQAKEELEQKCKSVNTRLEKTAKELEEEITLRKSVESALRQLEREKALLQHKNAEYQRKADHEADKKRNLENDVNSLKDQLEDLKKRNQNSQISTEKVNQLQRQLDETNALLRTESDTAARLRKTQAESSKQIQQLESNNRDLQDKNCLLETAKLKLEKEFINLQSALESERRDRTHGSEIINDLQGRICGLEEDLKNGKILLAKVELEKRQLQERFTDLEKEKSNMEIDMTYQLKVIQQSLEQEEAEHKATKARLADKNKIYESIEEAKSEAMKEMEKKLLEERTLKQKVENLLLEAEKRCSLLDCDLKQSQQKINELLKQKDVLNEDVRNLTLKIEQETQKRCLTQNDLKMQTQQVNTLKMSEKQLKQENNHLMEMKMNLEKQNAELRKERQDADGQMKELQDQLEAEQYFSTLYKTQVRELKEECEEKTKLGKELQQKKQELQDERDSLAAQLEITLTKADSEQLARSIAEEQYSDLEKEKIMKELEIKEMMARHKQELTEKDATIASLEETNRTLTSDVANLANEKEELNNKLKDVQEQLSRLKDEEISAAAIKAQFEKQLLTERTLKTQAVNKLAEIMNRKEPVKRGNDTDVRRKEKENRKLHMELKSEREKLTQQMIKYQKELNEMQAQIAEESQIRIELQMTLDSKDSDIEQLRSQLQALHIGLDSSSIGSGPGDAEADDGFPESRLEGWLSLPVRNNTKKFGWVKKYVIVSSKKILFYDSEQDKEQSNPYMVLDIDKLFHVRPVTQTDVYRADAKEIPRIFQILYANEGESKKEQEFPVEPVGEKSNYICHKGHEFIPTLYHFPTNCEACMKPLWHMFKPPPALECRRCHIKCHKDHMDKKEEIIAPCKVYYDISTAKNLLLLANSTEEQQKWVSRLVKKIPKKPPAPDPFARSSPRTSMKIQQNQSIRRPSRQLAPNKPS

[4] = molecular target: Serine/threonine-protein kinase 16 (Homo sapiens, UniProt O75716)
Chain of Serine/threonine-protein kinase 16 (O75716 whole entry): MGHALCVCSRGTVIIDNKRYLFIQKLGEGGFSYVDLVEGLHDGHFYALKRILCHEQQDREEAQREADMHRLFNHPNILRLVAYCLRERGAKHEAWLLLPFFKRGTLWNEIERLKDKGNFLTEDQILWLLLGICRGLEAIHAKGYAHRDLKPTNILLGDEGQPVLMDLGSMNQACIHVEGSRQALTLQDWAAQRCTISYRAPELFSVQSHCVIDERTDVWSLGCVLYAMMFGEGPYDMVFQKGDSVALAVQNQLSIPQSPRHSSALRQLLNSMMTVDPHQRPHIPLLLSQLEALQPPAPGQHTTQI

[5] = molecular target: Receptor-interacting serine/threonine-protein kinase 2 (Homo sapiens, UniProt O43353)
Chain of Receptor-interacting serine/threonine-protein kinase 2 (O43353 whole entry): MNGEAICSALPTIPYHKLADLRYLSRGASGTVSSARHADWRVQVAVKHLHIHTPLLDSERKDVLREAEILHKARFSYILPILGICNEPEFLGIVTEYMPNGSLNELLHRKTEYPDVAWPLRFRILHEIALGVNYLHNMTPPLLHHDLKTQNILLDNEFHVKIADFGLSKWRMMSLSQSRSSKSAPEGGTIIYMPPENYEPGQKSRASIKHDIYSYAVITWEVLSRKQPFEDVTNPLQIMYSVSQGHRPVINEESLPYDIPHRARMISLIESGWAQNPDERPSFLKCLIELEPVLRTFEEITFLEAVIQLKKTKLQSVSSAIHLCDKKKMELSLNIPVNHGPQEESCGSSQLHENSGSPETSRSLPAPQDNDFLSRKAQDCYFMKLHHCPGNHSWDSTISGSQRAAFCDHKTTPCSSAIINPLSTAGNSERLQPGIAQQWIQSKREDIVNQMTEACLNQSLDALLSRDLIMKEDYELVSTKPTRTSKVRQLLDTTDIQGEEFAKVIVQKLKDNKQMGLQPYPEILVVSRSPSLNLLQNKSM

[6] = molecular target: Dual specificity protein kinase CLK1 (Homo sapiens, UniProt P49759)
Chain of Dual specificity protein kinase CLK1 (P49759 whole entry): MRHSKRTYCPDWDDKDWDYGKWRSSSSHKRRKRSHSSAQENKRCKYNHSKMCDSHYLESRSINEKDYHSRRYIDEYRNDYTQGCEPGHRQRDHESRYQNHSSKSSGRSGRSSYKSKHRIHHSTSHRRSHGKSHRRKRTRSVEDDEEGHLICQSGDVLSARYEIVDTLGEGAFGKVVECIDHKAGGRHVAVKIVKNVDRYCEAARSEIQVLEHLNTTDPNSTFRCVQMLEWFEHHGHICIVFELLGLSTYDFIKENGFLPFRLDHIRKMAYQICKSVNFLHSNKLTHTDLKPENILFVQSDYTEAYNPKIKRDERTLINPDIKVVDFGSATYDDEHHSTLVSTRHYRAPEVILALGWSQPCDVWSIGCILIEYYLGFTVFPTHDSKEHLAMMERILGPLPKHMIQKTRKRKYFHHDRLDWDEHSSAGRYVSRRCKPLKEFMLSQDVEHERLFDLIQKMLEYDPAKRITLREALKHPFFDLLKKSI

[7] = molecular target: T4, Inhibitor of nuclear factor kappa-B kinase subunit epsilon (Homo sapiens, UniProt Q14164)
T4 sequence (Q14164 whole entry): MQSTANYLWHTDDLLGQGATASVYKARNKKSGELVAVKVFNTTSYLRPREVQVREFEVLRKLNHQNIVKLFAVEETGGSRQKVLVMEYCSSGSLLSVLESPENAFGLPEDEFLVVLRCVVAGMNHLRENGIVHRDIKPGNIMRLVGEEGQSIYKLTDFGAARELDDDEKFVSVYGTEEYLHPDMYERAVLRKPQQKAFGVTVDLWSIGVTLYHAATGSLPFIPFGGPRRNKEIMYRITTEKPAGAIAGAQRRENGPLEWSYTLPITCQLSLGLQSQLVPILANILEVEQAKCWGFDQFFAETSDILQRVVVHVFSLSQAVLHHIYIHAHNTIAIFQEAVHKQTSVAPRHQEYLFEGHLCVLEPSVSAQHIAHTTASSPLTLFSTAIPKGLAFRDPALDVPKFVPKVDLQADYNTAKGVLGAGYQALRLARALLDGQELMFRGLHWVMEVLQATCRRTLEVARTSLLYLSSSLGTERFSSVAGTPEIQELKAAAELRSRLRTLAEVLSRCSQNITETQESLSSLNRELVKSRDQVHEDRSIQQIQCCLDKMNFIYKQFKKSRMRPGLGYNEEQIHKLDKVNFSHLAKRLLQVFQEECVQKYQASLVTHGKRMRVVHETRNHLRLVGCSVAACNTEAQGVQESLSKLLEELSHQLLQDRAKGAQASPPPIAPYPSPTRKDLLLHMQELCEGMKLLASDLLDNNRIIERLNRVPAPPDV

[8] = molecular target: Insulin-like growth factor 1 receptor (Homo sapiens, UniProt P08069)
Chain of Insulin-like growth factor 1 receptor (P08069 31-736 limits assumed): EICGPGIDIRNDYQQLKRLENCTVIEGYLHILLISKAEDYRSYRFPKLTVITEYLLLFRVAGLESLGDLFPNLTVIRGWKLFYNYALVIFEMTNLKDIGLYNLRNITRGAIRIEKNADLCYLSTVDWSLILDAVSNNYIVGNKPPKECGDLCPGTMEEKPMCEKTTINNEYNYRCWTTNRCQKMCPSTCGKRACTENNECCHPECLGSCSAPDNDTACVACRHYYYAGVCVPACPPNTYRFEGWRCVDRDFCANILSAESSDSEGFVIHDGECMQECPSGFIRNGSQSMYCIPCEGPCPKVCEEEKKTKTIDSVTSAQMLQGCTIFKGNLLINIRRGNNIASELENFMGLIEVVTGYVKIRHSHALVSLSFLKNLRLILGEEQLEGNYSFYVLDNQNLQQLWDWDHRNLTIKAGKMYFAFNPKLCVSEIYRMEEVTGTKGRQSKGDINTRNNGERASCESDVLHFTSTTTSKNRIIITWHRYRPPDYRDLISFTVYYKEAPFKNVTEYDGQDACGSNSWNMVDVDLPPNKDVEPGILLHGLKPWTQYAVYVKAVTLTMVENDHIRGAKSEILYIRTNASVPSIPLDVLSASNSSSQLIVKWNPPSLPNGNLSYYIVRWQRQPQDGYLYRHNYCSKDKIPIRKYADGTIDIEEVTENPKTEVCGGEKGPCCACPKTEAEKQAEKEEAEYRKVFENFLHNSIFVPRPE
Chain of Insulin-like growth factor 1 receptor (P08069 741-1367 limits assumed): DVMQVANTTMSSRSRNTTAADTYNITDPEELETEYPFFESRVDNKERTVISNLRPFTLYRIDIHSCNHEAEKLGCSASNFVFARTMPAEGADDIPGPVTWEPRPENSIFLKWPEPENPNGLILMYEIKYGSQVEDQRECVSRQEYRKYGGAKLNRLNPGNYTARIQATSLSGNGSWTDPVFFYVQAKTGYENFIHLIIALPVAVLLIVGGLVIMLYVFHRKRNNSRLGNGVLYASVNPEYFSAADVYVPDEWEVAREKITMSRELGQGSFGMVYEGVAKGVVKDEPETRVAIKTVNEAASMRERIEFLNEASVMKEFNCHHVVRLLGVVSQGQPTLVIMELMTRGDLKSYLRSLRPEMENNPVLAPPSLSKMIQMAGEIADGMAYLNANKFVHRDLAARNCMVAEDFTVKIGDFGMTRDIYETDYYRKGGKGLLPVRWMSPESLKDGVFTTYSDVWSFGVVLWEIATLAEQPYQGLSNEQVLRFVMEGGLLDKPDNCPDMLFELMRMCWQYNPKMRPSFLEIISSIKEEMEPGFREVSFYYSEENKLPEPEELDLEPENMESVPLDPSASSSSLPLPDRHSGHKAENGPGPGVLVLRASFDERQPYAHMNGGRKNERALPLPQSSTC
Also: in the data inactive means no Kd found up to 30 µM.

| SMILES | Kd (Ephrin type-B receptor 2) | Kd [1] | Kd [2] | Kd [3] | Kd [4] | Kd [5] | Kd [6] | Kd [7] | Kd [8] |
| --- | --- | --- | --- | --- | --- | --- | --- | --- | --- |
| COc1ccc2c(OCc3nnc4ccc(-c5ccccc5)nn34)ccnc2c1 [AMG-208] | > 30 µM (inactive) | > 30 µM (inactive) | > 30 µM (inactive) | > 30 µM (inactive) | > 30 µM (inactive) | > 30 µM (inactive) | > 30 µM (inactive) | > 30 µM (inactive) | > 30 µM (inactive) |
| CCN1CCN(Cc2ccc(Nc3ncc(F)c(-c4cc(F)c5nc(C)n(C(C)C)c5c4)n3)nc2)CC1 [ABEMACICLIB] | > 30 µM (inactive) | > 30 µM (inactive) | > 30 µM (inactive) | > 30 µM (inactive) | 0.495 µM (active) | > 30 µM (inactive) | 0.007 µM (active) | > 30 µM (inactive) | > 30 µM (inactive) |
| COc1cccc2cc(-c3nc([C@H]4CC[C@H](C(=O)O)CC4)n4ncnc(N)c34)[nH]c12 [OSI-027] | > 30 µM (inactive) | 4.91 µM (active) | > 30 µM (inactive) | > 30 µM (inactive) | > 30 µM (inactive) | 1.16 µM (active) | > 30 µM (inactive) | > 30 µM (inactive) | > 30 µM (inactive) |
| O=C(NC[C@H](O)CO)c1ccncc1Nc1ccc(I)cc1F [PIMASERTIB] | > 30 µM (inactive) | > 30 µM (inactive) | > 30 µM (inactive) | > 30 µM (inactive) | > 30 µM (inactive) | > 30 µM (inactive) | > 30 µM (inactive) | > 30 µM (inactive) | > 30 µM (inactive) |
| CN1CCN(c2nc(C3=C(c4c[nH]c5ccccc45)C(=O)NC3=O)c3ccccc3n2)CC1 [SOTRASTAURIN] | > 30 µM (inactive) | > 30 µM (inactive) | > 30 µM (inactive) | > 30 µM (inactive) | > 30 µM (inactive) | > 30 µM (inactive) | > 30 µM (inactive) | > 30 µM (inactive) | > 30 µM (inactive) |
| c1cc(OCCN2CCCCC2)cc(-c2n[nH]c3ccc(-c4nc[nH]n4)cc23)c1 [CC-401] | > 30 µM (inactive) | > 30 µM (inactive) | > 30 µM (inactive) | > 30 µM (inactive) | > 30 µM (inactive) | > 30 µM (inactive) | > 30 µM (inactive) | > 30 µM (inactive) | > 30 µM (inactive) |
| COc1ccc(-c2ccc3ncc4c(c3c2)n(-c2ccc(N3CCNCC3)c(C(F)(F)F)c2)c(=O)n4C)cn1 [BGT-226 FREE BASE] | > 30 µM (inactive) | > 30 µM (inactive) | > 30 µM (inactive) | > 30 µM (inactive) | > 30 µM (inactive) | > 30 µM (inactive) | 0.246 µM (active) | > 30 µM (inactive) | > 30 µM (inactive) |
| CC(C)CC(=O)Nc1[nH]nc2c1CN(C(=O)C1CCN(C)CC1)C2(C)C [PHA-793887] | > 30 µM (inactive) | > 30 µM (inactive) | > 30 µM (inactive) | > 30 µM (inactive) | > 30 µM (inactive) | > 30 µM (inactive) | 2.18 µM (active) | > 30 µM (inactive) | > 30 µM (inactive) |

Reference: ChEMBL document CHEMBL3991601, “The target landscape of clinical kinase drugs” (Science, 2017)
